Results taken from patent publication US20250129021A1, “SMALL MOLECULE PROTEIN SYNTHESIS MODULATORS” (Interdict Bio, Inc., priority 2023, published 2025).
Where two headings read alike, the source gives them in different places.

How the values were obtained:
BCL-2 = assay: In vitro transcription-translation (IVTT) assay, BCL-2 reporter; format: biochemical; conditions: HeLa S3 lysate, sfGFP/mCherry ratio, 2 hrs at 30° C.
Excerpt: All reporter constructs have been cloned into the pT7CFE1-CHis plasmid (ThermoFisher #88860) using Gibson assembly procedures (NEB #E2611L). The parental pT7CFE1-CHis plasmid contains an EMCV IRES at the 5′UTR for translation initiation, a multiple-cloning site (MCS) for gene insertion, an optional C-terminal His-epitope tag, and polyA sequence in the 3′UTR to regulate mRNA stability. All reporters are designed to be inserted at the MCS to include a red fluorescent protein (mCherry), P2A self-cleaving peptide which releases the preceding mCherry protein product, and a fusion open reading frame containing a 3×FLAG epitope, a peptide sequence of interest (TEST), and green fluorescent protein (sfGFP).
Construct Plasmid Preparation: All plasmids are isolated from MACH1 cells (ThermoFisher) grown overnight in ampicillin-containing luria broth, and purified using ZymoPure Express Plasmid Midiprep Kit (Zymo Research). Constructs are sequenced verified and diluted to a working concentration of 110 ng/μL.
HeLa S3 Lysate Preparation: HeLa S3 cell pellets are acquired from Ipracell/Ipratech (Belgium) and shipped as 4 mL frozen cell pellets on dry ice for storage at −80° C. until use. The procedure for lysate preparation is as follows. Prepare 1× Lysis Buffer, cold and stored on ice:
Each preparation takes 8 cell pellets (4 ml packed volume each, approximately 1.0×10^9 cells per pellet). Thaw cell pellets from −80° C. on ice for 90 mins. Lay pellets horizontally on top of the ice and rotate every 30 mins to ensure even thawing. Once thawed, add 4 mL of cold lysis buffer to each pellet, and using a serological pipet, gently pipet up and down to break up clumps. Incubate resuspended cells in ice for an additional 30 mins (plunged into ice). During 30 min incubation, rinse and RNase-zap (Ambion) glass dounces (use loose pestle “A”), gently dry and place on ice until needed. Prepare RNase-free Eppendorf tubes for spinning and for batch storage. Add batch labels to 1.5-1.7 mL RNase-free microcentrifuge tubes (labeling scheme below). Each batch will have an extra 1.5-1.7 mL RNase-free microcentrifuge tube for 40 μL of lysate, label the top of this tube (labeling scheme below). After 30 min incubation, transfer all 8 mL of cell pellet to dounce. Cell lysis is complete after douncing 100 times. Aliquot cell lysis into 1.5-1.7 mL temporary-microcentrifuge tubes. Place tubes in centrifuge with “fins” out, and spin at 1,200×g for 5 mins. After the first spin use a 1 mL pipet to resuspend each tube and repeat spin. This acts as an additional lysis step, is more vigorous and increases lysate yield. During second spin get liquid N2 and a fresh conical tube on ice. After spin is complete, transfer supernatant (lysate) from microcentrifuge tubes into the 50 mL conical tube and keep on ice. Repeat steps 10-14 for all other cell pellets until completed. Once all cell lysate has been transferred to the 50 mL conical tube pipet to mix so the solution is homogenous. Transfer 1 mL of lysate into batch-labeled microcentrifuge tubes and flash freeze in liquid nitrogen. Be sure to pipet up and down to mix throughout transfer step. Place all tubes in the […] for long-term storage.
In vitro transcription-translation assay setup: Each assay includes a master mix containing lysate and shared components, a 96-well plate containing compound titrations for testing, a 96-well DNA plate with reporter constructs to be tested, 96-well skirted PCR plates, and 96-well flat-bottom, black, fluorescent assay plates. […]

HEK 293T = assay: Cell viability (CellTiter-Fluor), HEK 293T; format: cell-based; conditions: Homo sapiens, 24-72 hrs
Protocol: Count and dispense 2,000-10,000 cells per well (100 μL volume) in black 96-well tissue culture microplate and let cells adhere overnight. Add compound dissolved in 100% DMSO to each well as needed and incubate cells in standard culture conditions for 24-72 hrs. Final DMSO concentration in each well should be 0.1-0.5%. At the desired time point, gently aspirate compound containing media and replace with PBS to wash. Repeat wash step for 2 total washes. Remove PBS and add 100 μL CellTiter-Fluor reagent (Promega) reagent to each well. Seal plate and incubate 1 hr at room temperature with orbital shaking. Analyze fluorescence using plate reader to quantify viable cells compared with vehicle (DMSO) control.

MCL-1 = assay: In vitro transcription-translation (IVTT) assay, MCL-1 reporter; format: biochemical; conditions: HeLa S3 lysate, sfGFP/mCherry ratio
In short: (§1)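 Reporter: mCherry, P2A, then 3×FLAG-target peptide-sfGFP fusion, IRES-initiated; HeLa S3 lysate IVTT; cpd dilutions 30 μM−0.1 μM half-log in 100% DMSO (dilution-plate conc); DNA added last; 2 h, 30° C; PBS quench.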

MYC = assay: In vitro transcription-translation (IVTT) assay, MYC reporter; format: biochemical; conditions: HeLa S3 lysate, 2 hrs at 30° C.
In short: as §1

CCND1 = assay: In vitro transcription-translation (IVTT) assay, CCND1 reporter; format: biochemical; conditions: HeLa S3 lysate, sfGFP/mCherry ratio, 2 hrs at 30° C.
In short: as §1

CCNE1 = assay: In vitro transcription-translation (IVTT) assay, CCNE1 reporter; format: biochemical; conditions: HeLa S3 lysate, sfGFP/mCherry ratio
Protocol: In vitro transcription-translation assay setup: Each assay includes a master mix containing lysate and shared components, a 96-well plate containing compound titrations for testing, a 96-well DNA plate with reporter constructs to be tested, 96-well skirted PCR plates, and 96-well flat-bottom, black, fluorescent assay plates. Reaction materials setup: (A) Master mix—15 mL conical tube (3 mL of HeLa S3 Lysate described above; 0.6 mL of ThermoFisher Accessory Proteins (#88882); 1.2 ml of ThermoFisher Reaction Mix (#88882); 0.54 mL of nuclease-free Water); (B) 96-Well Master Mix+Compound Plate (Half-log dilutions (30 μM−0.1 μM) of 4 compounds of interest are prepared in 100% DMSO); 96-Well DNA Plate (Five DNA constructs are plated into single columns within the plate. Row 1 of the column contains nuclease free H2O, all other wells contain 110 ng/μL plasmid DNA). Reactions are started by mixing 155 μL of master mix and 3.5 μL of compound serial dilutions, then 9.1 μL of master mix+compound mixture is aliquoted across 5 96-well plates. Reactions begin with final addition of 2 μL of DNA for a 11.1 μL reaction volume in each well. The entire plate is sealed, and incubated for 2 hrs at 30° C. After 2 hrs, quench the assay using 45 μL of PBS, and transfer 50 μL to a flat-bottom black microplate Quantify the sfGFP and mCherry signals from each well on each plate, taking 3 reads of each plate, and perform data analysis below.
In vitro transcription-translation assay data analysis: Each plate is read three times in channels for both sfGFP and mCherry signals. The average signal across these 3 reads is then calculated for further analysis. Control wells containing no DNA reporter are subtracted from reporter wells in the same column to remove auto-fluorescence of the lysate. Then, the ratio of sfGFP/mCherry is calculated per well, and these ratios are averaged across the triplicate experiments on the same plate. Finally, the ratio of each titration concentration is normalized to the no drug control to create the normalized stalling metric. The error on this measurement is determined by propagating error through the averaging and normalization steps. Values are plotted and fit for IC50 determination for each test sequence and titration of compound.

[1] = IVTT assay, read-out: MCL1 IC50
[2] = IVTT assay, MYC reporter, normalized sfGFP/mCherry ratio, half-log dilutions 30 μM-0.1 μM

SMILES: COc1ccc(C[C@H]2NC[C@H](O)[C@H]2OC(=O)NCCc2nc[nH]c2C)cc1 [V187823, (2R,3S,4S)-4-hydroxy-2-[(4-methoxyphenyl)methyl]pyrrolidin-3-yl N-[2-(5-methyl-1H-imidazol-4-yl)ethyl]carbamate]
- IC50 (BCL-2): 10 to 20 µM
- IC50 (HEK 293T): ≥ 4 µM
- IC50 (MCL-1; 2 hrs at 30° C.): < 10 µM
- IC50 (MYC; sfGFP/mCherry ratio): < 10 µM
- IC50 (CCND1): 10 to 20 µM

SMILES: O=C(NCc1cccc(OC(F)F)c1)O[C@@H]1[C@@H](O)CN[C@@H]1Cc1ccc(-c2cnco2)cc1 [V193068, (2R,3S,4S)-4-hydroxy-2-(4-(oxazol-5-yl)benzyl)pyrrolidin-3-yl (3-(difluoromethoxy)benzyl)carbamate]
- IC50 (MCL-1; [1]): < 10 µM
- IC50 (CCNE1): < 10 µM
- IC50 (MYC; [2]): < 10 µM

SMILES: O=C(NCC[C@H]1CC2(CC2)CN1)O[C@@H]1[C@@H](O)CN[C@@H]1Cc1ccc(-c2cnco2)cc1 [V193018, (2R,3S,4S)-4-hydroxy-2-(4-(oxazol-5-yl)benzyl)pyrrolidin-3-yl (2-((R)-5-azaspiro[2.4]heptan-6-yl)ethyl)carbamate]
- IC50 (MCL-1; [1]): < 10 µM
- IC50 (CCNE1): < 10 µM
- IC50 (MYC; [2]): < 10 µM

SMILES: O=C(NCC[C@@H]1CCN1)O[C@@H]1[C@@H](O)CN[C@@H]1Cc1ccc(OC(F)F)cc1 [V192938, (2R,3S,4S)-2-{[4-(difluoromethoxy)phenyl]methyl}-4-hydroxypyrrolidin-3-yl N-{2-[(2S)-azetidin-2-yl]ethyl}carbamate]
- IC50 (MCL-1; [1]): < 10 µM
- IC50 (CCNE1): < 10 µM
- IC50 (MYC; [2]): < 10 µM

SMILES: O=C(NCC[C@@H]1CCN1)O[C@@H]1[C@@H](O)CN[C@@H]1Cc1ccc(-c2cnco2)cc1F [V192990, (2R,3S,4S)-2-(2-fluoro-4-(oxazol-5-yl)benzyl)-4-hydroxypyrrolidin-3-yl (2-((S)-azetidin-2-yl)ethyl)carbamate]
- IC50 (MCL-1; [1]): < 10 µM
- IC50 (CCNE1): < 10 µM
- IC50 (MYC; [2]): < 10 µM

SMILES: O=C(NCC[C@@H]1CCCN1)O[C@@H]1[C@@H](O)CN[C@@H]1Cc1ccc(-c2cnn(C(F)F)c2)cc1 [V193080, (2R,3S,4S)-2-(4-(1-(difluoromethyl)-1H-pyrazol-4-yl)benzyl)-4-hydroxypyrrolidin-3-yl (2-((S)-pyrrolidin-2-yl)ethyl)carbamate]
- IC50 (MCL-1; [1]): < 10 µM
- IC50 (CCNE1): < 10 µM
- IC50 (MYC; [2]): < 10 µM

SMILES: O=C(NCC[C@@H]1CCNC1)O[C@@H]1[C@@H](O)CN[C@@H]1Cc1ccc(C(F)F)cc1 [V193010, (2R,3S,4S)-2-(4-(difluoromethyl)benzyl)-4-hydroxypyrrolidin-3-yl (2-((S)-pyrrolidin-3-yl)ethyl)carbamate]
- IC50 (MCL-1; [1]): 10 to 20 µM
- IC50 (CCNE1): < 10 µM
- IC50 (MYC; [2]): < 10 µM

SMILES: N#Cc1csc(-c2ccc(C[C@H]3NC[C@H](O)[C@H]3OC(=O)NCc3cccc(F)c3)cc2)c1 [V193129, (2R,3S,4S)-2-(4-(4-cyanothiophene-2-yl)benzyl)-4-hydroxypyrrolidin-3-yl (3-fluorobenzyl)carbamate]
- IC50 (MCL-1; [1]): < 10 µM
- IC50 (CCNE1): < 10 µM
- IC50 (MYC; [2]): < 10 µM

SMILES: O=C(NCCOC(F)(F)F)O[C@@H]1[C@@H](O)CN[C@@H]1Cc1ccc(C(F)F)cc1 [V192930, (2R,3S,4S)-2-(4-(difluoromethyl)benzyl)-4-hydroxypyrrolidin-3-yl (2-(trifluoromethoxy)ethyl)carbamate]
- IC50 (MCL-1; [1]): < 10 µM
- IC50 (CCNE1): < 10 µM
- IC50 (MYC; [2]): < 10 µM

SMILES: O=C(NCC[C@@H]1CCN1)O[C@@H]1[C@@H](O)CN[C@@H]1Cc1ccc(-c2cnco2)c(F)c1 [V192991, (2R,3S,4S)-2-(3-fluoro-4-(oxazol-5-yl)benzyl)-4-hydroxypyrrolidin-3-yl (2-((S)-azetidin-2-yl)ethyl)carbamate]
- IC50 (MCL-1; [1]): < 10 µM
- IC50 (CCNE1): < 10 µM
- IC50 (MYC; [2]): < 10 µM

SMILES: O=C(NCc1cccc(F)c1)O[C@@H]1[C@@H](O)CN[C@@H]1Cc1ccc(-c2cc(C(F)F)cs2)cc1 [V193142, (2R,3S,4S)-2-(4-(4-(difluoromethyl)thiophen-2-yl)benzyl)-4-hydroxypyrrolidin-3-yl (3-fluorobenzyl)carbamate]
- IC50 (MCL-1; [1]): < 10 µM
- IC50 (CCNE1): 10 to 20 µM
- IC50 (MYC; [2]): < 10 µM

SMILES: COc1ccc(C[C@H]2NC[C@H](O)[C@H]2OC(=O)NCCNc2cc[nH]n2)cc1 [V187827, (2R,3S,4S)-4-hydroxy-2-[(4-methoxyphenyl)methyl]pyrrolidin-3-yl N-[2-(1H-pyrazol-3-ylamino)ethyl]carbamate]
- IC50 (BCL-2): 10 to 20 µM
- IC50 (HEK 293T): ≥ 4 µM
- IC50 (MCL-1; 2 hrs at 30° C.): < 10 µM
- IC50 (MYC; sfGFP/mCherry ratio): < 10 µM
- IC50 (CCND1): < 10 µM

SMILES: O=C(NCc1cccc2c1CNC2)O[C@@H]1[C@@H](O)CN[C@@H]1Cc1ccc(C(F)F)cc1 [V193139, (2R,3S,4S)-2-(4-(difluoromethyl)benzyl)-4-hydroxypyrrolidin-3-yl (isoindolin-4-ylmethyl)carbamate]
- IC50 (MCL-1; [1]): < 10 µM
- IC50 (CCNE1): < 10 µM
- IC50 (MYC; [2]): < 10 µM

SMILES: O=C(NCc1cc(F)cc(F)c1)O[C@@H]1[C@@H](O)CN[C@@H]1Cc1ccc(-c2cnco2)cc1 [V193071, (2R,3S,4S)-4-hydroxy-2-(4-(oxazol-5-yl)benzyl)pyrrolidin-3-yl (3,5-difluorobenzyl)carbamate]
- IC50 (MCL-1; [1]): < 10 µM
- IC50 (CCNE1): < 10 µM
- IC50 (MYC; [2]): < 10 µM

SMILES: O=C(NCC[C@@H]1CCNC1)O[C@@H]1[C@@H](O)CN[C@@H]1Cc1ccc(-c2cnn(C(F)F)c2)cc1 [V193081, (2R,3S,4S)-2-(4-(1-(difluoromethyl)-1H-pyrazol-4-yl)benzyl)-4-hydroxypyrrolidin-3-yl (2-((S)-pyrrolidin-3-yl)ethyl)carbamate]
- IC50 (MCL-1; [1]): < 10 µM
- IC50 (CCNE1): < 10 µM
- IC50 (MYC; [2]): < 10 µM
